Data taken from patent US9199959B2, “HIV replication inhibitor” (Shionogi & Co., Ltd., priority 2011, dated 2015).

The compounds below were run on HIV (HTLV-III B strain) (assay: HIV replication inhibition assay (MTT, MT-4 cells)). Details: Human immunodeficiency virus 1, MT4, 96 h, four days culture, concentration at which cell cytotoxicity by virus is inhibited 50%.
Assay type: cell-based
Method: HIV (HTLV-III B strain) persistent infected human T cell strain Molt-4 clone 8 was cultured in 10% Fetal Bovine Serum-containing RPMI-1640 medium and the supernatant was filtrated, then the virus titer was measured and the solution was stored at −80° C. Each anti-human immunodeficiency virus active substance was diluted with the above cultured medium to the designated concentration, which was dispensed into 96 well micro plate by 50 μL. Next, a MT-4 cell suspended liquid was dispensed by 100 μL (2.5×10^4 cells), then the above HIV-containing supernatant diluted with the above cultured medium was added thereto by 50 μL (60 pfu (plaque forming unit)).
The obtained mixture was cultured at 37° C. in CO2 incubator for four days, then 3-(4,5-dimehylthiazole-2-yl)-2,5-diphenyltetrazolynium bromide (MTT) 5 mg/mL in PBS was added to each well by 30 μL, followed by 1 hr-cultivation. In this step, as formazan was precipitated by reduction of MTT in living cells, the cell supernatant was removed from all well by 150 μL, then a 150 μL of solution (10% Triton X-100 and […]) was added thereto, followed by shaking with a plate mixer, to elute formazan. The formazan was measured with a microreader at OD: 560 nm and 690 nm (wavelength) and the result was compared with the reference. EC50 means the compound concentration at which cell cytotoxicity by virus is inhibited 50%.
`CNc1c(C)c(C(OC(C)(C)C)C(=O)O)c(-c2ccc(C)c(C)c2)c(C)c1-c1ccc(C)c(C)c1` (centres unmarked) [Compound I-14] showed an EC50 of 19 nM.
In the case of `Cc1cc(NS(=O)(=O)c2cccc3ccccc23)c(C)c(C(OC(C)(C)C)C(=O)O)c1-c1ccc2c(c1)CCCO2` (centres unmarked) [Compound I-60], the EC50 is reported as 4 nM.
Work on `Cc1cc(NS(=O)(=O)c2cccc3cccnc23)c(C)c(C(OC(C)(C)C)C(=O)O)c1-c1ccc2c(c1)CCCO2` (centres unmarked) [Compound I-66] yielded an EC50 of 4.5 nM.
With `Cc1cc(NS(=O)(=O)CC2CCCCC2)c(C)c(C(OC(C)(C)C)C(=O)O)c1-c1ccc2c(c1)CCCO2` (centres unmarked) [Compound I-82] the EC50 was 4.1 nM.
`Cc1cc(NS(=O)(=O)c2cccc(Cl)c2Cl)c(C)c(C(OC(C)(C)C)C(=O)O)c1-c1ccc2c(c1)CCCO2` (centres unmarked) [Compound I-121] gave an EC50 of 5.2 nM.
Work on `Cc1c(-c2c(C)c(C)c(NS(=O)(=O)c3cccc4ccccc34)c(C)c2C(OC(C)(C)C)C(=O)O)ccc2c1CCCO2` (centres unmarked) [Compound I-140] yielded an EC50 of 1.9 nM.
For `Cc1c(-c2c(C)c(C)c(NS(=O)(=O)c3cccc4ccccc34)c(C)c2[C@H](OC(C)(C)C)C(=O)O)ccc2c1CCCO2` [Compound I-145], the EC50 was 1.2 nM.
Work on `Cc1cc(NS(=O)(=O)CC2CCCCC2)c(C)c(C(OC(C)(C)C)C(=O)O)c1-c1ccc2c(c1C)CCCO2` (centres unmarked) [Compound I-150] yielded an EC50 of 2.3 nM.
With `Cc1ccc(-c2c(C)c(C3=CCCCCC3)c(C(OC(C)(C)C)C(=O)O)c(C)c2NS(C)(=O)=O)cc1C` (centres unmarked) [Compound I-168] the EC50 was 3.9 nM.
Compound `Cc1ccc(-c2c(C)c(-c3ccc4c(c3C)CCCO4)c(C(OC(C)(C)C)C(=O)O)c(C)c2NS(C)(=O)=O)cc1C` (centres unmarked) [Compound I-215] has an EC50 of 2.2 nM.
With `Cc1c(OCc2ccccc2)c(N(C)S(C)(=O)=O)c(C)c(C(OC(C)(C)C)C(=O)O)c1-c1ccc2c(c1)CCCO2` (centres unmarked) [Compound I-263] the EC50 was 2.5 nM.
`COc1ccc(-c2c(C)cc(NS(=O)(=O)CC3CCCCC3)c(C)c2C(OC(C)(C)C)C(=O)O)cc1` (centres unmarked) [Compound I-285] gave an EC50 of 4.5 nM.
`Cc1cc(-c2c(C)c(-c3ccc4c(c3C)CCCO4)c([C@H](OC(C)(C)C)C(=O)O)c(C)c2NS(C)(=O)=O)ccc1F` [Compound I-305] gave an EC50 of 2 nM.
`Cc1cc(-c2c(C)c(-c3cc(F)c4c(c3C)CCCO4)c([C@H](OC(C)(C)C)C(=O)O)c(C)c2NS(C)(=O)=O)ccc1F` [Compound I-310] was tested, and the EC50 was 4 nM.
Work on `Cc1cc2c(c(C(OC(C)(C)C)C(=O)O)c1-c1ccc3c(c1)CCCO3)CCCN2S(=O)(=O)c1cccc2ccccc12` (centres unmarked) [II-14] yielded an EC50 of 4.8 nM.
For `Cc1cc2c(c(C(OC(C)(C)C)C(=O)O)c1-c1ccc3c(c1)CCCO3)CCCN2S(=O)(=O)c1cccc2cccnc12` (centres unmarked) [II-17], the EC50 was 2.5 nM.
In the case of `Cc1ccc(-c2c(C)c(-c3ccc(C)c(C)c3)c3c(c2[C@H](OC(C)(C)C)C(=O)O)CCC(=O)N3C)cc1C` [II-42], the EC50 is reported as 4.4 nM.
